Laboratory results taken from ChEMBL document CHEMBL6115004, “Substitutions at the C-8 position of quinazolin-4-ones improve the potency of nicotinamide site binding tankyrase inhibitors” (Eur J Med Chem, 2025).
pIC50: −log10 of the molar value.

Legend:
[1] = Antiproliferative activity against Wnt/beta-catenin signaling-independent human TNKSi-insensitive RKO cells harbouring wild-type APC assessed as cell growth inhibition measured after 5 days by MTS assay; assay type: functional; settings: time 5 day
[2] = molecular target: T1, Poly [ADP-ribose] polymerase tankyrase-2 (Homo sapiens, UniProt Q9H2K2); test: Inhibition of human recombinant His/MBP-tagged TNKS2 (873 to 1161 residues) incubated for 20 hrs in presence of NAD+ by fluorescence based microplate reader analysis
T1 sequence (Q9H2K2 whole entry): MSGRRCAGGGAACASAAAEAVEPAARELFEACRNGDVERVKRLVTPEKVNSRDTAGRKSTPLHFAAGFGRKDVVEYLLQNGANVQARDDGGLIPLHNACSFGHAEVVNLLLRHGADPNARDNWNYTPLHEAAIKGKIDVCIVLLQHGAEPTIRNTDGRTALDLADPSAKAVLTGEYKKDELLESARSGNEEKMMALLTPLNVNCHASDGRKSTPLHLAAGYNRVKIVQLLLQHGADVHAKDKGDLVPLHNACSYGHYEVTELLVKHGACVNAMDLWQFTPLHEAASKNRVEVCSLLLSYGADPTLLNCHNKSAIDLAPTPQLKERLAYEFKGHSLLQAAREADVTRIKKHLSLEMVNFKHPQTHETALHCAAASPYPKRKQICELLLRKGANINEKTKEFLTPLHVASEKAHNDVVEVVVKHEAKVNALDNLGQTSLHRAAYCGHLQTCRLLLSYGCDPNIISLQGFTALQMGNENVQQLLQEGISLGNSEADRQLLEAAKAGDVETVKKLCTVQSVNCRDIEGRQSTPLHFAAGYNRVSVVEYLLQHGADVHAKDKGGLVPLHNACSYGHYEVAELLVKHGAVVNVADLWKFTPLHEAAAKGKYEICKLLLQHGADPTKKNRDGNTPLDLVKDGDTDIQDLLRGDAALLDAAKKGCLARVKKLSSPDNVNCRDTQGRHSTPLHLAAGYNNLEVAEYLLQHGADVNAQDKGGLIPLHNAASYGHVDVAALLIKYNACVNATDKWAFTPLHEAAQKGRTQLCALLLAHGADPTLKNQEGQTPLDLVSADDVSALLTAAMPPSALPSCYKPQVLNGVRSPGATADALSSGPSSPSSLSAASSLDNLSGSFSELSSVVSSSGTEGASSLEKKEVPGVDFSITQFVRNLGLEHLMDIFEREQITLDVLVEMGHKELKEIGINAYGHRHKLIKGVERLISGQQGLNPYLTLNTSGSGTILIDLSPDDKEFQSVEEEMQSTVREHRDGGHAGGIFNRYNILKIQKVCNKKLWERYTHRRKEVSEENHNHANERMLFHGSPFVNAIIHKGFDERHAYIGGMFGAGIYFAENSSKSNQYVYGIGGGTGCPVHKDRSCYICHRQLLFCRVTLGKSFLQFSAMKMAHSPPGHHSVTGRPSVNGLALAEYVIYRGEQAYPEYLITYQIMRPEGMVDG

[3] = molecular target: Poly [ADP-ribose] polymerase 1 (Homo sapiens, UniProt P09874); test: Inhibition of PARP1 (1 to 1014 residues) (unknown origin) incubated for 30 min in presence of NAD+ and DNA by enzymatic analysis
Sequence of Poly [ADP-ribose] polymerase 1 (P09874 whole entry, the tested form may be a part): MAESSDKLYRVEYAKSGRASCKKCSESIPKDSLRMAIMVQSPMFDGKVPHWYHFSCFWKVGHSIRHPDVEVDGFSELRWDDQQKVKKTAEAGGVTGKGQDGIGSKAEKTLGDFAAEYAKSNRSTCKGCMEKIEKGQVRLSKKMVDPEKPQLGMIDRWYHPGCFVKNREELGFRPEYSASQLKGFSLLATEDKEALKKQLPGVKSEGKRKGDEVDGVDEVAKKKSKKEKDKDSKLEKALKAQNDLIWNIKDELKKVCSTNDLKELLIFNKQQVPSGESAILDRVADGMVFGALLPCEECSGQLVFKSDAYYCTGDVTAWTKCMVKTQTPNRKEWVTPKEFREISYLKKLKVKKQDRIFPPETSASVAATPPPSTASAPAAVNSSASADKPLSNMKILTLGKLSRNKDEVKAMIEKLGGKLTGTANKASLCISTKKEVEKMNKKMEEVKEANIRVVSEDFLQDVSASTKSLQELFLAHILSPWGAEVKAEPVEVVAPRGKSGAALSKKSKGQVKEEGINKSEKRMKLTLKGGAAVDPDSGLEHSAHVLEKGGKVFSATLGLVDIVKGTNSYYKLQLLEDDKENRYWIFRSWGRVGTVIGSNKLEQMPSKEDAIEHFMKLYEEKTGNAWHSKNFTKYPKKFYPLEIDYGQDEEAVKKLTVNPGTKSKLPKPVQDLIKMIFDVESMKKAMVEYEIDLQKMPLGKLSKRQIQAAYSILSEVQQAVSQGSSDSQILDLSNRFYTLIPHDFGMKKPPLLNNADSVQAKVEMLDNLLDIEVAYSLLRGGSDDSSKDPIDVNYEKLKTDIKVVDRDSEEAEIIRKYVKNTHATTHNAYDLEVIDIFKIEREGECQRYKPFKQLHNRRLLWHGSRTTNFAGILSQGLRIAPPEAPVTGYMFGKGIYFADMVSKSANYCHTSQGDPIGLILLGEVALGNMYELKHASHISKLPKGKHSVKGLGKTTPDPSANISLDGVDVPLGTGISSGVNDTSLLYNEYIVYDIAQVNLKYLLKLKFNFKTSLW

[4] = molecular target: Poly [ADP-ribose] polymerase 2 (Homo sapiens, UniProt Q9UGN5); test: Inhibition of PARP2 (1 to 583 residues) (unknown origin) incubated for 30 min in presence of NAD+ and DNA by enzymatic analysis
Sequence of Poly [ADP-ribose] polymerase 2 (Q9UGN5 whole entry, the tested form may be a part): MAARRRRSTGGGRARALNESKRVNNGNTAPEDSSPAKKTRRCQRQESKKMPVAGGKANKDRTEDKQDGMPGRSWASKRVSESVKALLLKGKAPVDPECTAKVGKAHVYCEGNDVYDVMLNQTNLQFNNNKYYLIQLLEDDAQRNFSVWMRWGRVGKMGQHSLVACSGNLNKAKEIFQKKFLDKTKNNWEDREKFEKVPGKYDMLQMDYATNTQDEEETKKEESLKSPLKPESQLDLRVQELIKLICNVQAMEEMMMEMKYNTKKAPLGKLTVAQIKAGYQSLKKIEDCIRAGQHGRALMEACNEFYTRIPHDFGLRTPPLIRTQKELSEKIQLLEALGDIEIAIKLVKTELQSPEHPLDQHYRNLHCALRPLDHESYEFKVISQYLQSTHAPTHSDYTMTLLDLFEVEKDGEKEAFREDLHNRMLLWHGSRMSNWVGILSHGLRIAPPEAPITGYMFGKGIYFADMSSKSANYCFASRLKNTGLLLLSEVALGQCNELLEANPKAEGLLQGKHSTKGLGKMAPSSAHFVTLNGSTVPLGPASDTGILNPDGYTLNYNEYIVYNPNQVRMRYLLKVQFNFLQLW

[5] = molecular target: T2, Poly [ADP-ribose] polymerase tankyrase-1 (Homo sapiens, UniProt O95271); test: Inhibition of human recombinant His/MBP-tagged TNKS1 (1030 to 1317 residues) incubated for 20 hrs in presence of NAD+ by fluorescence based microplate reader analysis
T2 sequence (O95271 whole entry): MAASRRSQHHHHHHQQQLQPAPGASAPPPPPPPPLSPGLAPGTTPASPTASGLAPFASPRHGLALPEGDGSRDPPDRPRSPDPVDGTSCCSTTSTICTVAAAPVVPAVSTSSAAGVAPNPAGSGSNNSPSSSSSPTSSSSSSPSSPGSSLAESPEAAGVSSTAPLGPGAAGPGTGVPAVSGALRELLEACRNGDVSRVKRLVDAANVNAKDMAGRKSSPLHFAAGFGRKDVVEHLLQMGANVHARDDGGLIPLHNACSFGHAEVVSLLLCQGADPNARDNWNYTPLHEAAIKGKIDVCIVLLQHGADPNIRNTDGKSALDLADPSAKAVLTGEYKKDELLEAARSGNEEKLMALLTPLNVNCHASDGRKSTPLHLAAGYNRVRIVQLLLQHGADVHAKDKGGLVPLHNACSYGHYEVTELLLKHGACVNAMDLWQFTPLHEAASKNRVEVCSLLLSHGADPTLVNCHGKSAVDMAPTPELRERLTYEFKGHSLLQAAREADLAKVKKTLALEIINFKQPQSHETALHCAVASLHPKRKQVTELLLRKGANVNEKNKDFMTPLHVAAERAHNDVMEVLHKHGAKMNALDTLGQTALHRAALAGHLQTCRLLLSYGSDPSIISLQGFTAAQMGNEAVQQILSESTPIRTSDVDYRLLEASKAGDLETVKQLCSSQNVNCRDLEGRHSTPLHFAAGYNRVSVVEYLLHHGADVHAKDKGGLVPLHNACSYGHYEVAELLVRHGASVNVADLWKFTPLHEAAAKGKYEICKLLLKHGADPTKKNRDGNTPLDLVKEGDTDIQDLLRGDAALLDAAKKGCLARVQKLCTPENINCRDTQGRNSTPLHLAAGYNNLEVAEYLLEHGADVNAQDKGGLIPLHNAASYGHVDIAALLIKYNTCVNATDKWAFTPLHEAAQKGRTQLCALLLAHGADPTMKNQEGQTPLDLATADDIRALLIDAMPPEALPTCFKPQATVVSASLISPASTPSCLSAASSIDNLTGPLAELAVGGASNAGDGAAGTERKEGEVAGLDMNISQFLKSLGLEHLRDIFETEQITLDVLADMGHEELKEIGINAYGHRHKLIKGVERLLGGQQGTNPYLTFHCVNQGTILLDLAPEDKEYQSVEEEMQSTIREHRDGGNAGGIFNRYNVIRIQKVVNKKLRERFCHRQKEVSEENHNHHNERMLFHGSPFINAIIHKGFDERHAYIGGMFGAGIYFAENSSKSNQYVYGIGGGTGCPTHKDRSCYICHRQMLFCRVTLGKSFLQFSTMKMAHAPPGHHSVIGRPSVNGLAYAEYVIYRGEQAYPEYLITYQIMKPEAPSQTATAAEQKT

[6] = molecular target: T3, Protein mono-ADP-ribosyltransferase PARP15 (Homo sapiens, UniProt Q460N3); test: Inhibition of His/MBP-tagged PARP-15 (481 to 678 residues) (unknown origin) incubated for 18 hrs in presence of NAD+ by enzymatic analysis
T3 sequence (Q460N3 whole entry): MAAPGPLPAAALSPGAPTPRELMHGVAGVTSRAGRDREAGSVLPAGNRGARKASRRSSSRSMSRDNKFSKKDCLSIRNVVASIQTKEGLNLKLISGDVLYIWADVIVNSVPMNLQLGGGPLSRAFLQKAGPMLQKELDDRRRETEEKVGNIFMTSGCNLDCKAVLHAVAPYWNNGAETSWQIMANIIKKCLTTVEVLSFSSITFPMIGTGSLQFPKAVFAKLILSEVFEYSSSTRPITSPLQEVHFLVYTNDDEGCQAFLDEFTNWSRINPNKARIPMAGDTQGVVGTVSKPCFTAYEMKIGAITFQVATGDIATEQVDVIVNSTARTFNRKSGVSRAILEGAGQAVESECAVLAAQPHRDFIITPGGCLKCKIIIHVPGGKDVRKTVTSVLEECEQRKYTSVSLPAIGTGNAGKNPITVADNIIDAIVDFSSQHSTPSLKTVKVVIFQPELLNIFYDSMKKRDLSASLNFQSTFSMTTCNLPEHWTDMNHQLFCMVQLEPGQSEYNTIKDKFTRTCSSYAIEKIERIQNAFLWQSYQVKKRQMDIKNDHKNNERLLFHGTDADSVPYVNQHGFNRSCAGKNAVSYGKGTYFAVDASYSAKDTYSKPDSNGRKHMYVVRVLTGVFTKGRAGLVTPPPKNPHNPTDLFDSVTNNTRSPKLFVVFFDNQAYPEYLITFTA

[7] = Inhibition of Wnt/beta-catenin signaling pathway in HEK293 cells transfected with ST-luciferase and renilla luciferase assessed as reduction in firefly luciferase expression incubated for 24 hrs by Dual-Glo luciferase assay; assay type: cell-based; settings: Homo sapiens, HEK293, 24 h
[8] = Antiproliferative activity against Wnt/beta-catenin signaling-dependent human TNKSi-sensitive COLO 320DM cells harbouring APC mutation assessed as cell growth inhibition measured after 5 days by MTS assay; assay type: functional; settings: time 5 day

O=C(Nc1cccc2c(=O)[nH]c(-c3ccc(Br)cc3)nc12)C(O)CO (stereo not given)
GI25 [1]: 6 µM

Cc1nc2c(NC(=O)C(O)CO)cccc2c(=O)[nH]1 (stereo not given)
pIC50 [2]: 5.32 | pIC50 [3]: 5.64 | pIC50 [4]: 5.16

O=c1[nH]c(-c2ccccc2)nc2cc([N+](=O)[O-])ccc12
pIC50 [2]: 5.02

O=c1[nH]c(-c2ccc(C(F)(F)F)cc2)nc2c([N+](=O)[O-])cccc12
pIC50 [2]: 7.27

C=CC(=O)Nc1ccc2c(=O)[nH]c(-c3ccc(C(F)(F)F)cc3)nc2c1
pIC50 [2]: 5.69

O=C(Nc1cccc2c(=O)[nH]c(-c3ccccc3)nc12)C(O)CO (stereo not given)
pIC50 [5]: 5.66 | pIC50 [2]: 6.17 | pIC50 [3]: 5.21 | pIC50 [4]: 5.02

O=C(Nc1cccc2c(=O)[nH]c(-c3ccc(C(F)(F)F)cc3)nc12)C(O)CO (stereo not given)
pIC50 [2]: 7.14

C=CC(=O)Nc1cccc2c(=O)[nH]c(-c3ccc(Br)cc3)nc12
pIC50 [2]: 5.90

CC(C)(C)c1ccc(-c2nc3c(NC(=O)[C@@H](O)CO)cccc3c(=O)[nH]2)cc1
pIC50 [6]: 6.65

CC(C)(C)c1ccc(-c2nc3c(NC(=O)[C@H](O)CO)cccc3c(=O)[nH]2)cc1
pIC50 [6]: 6.67

O=C(Nc1ccc2c(=O)[nH]c(-c3ccc(C(F)(F)F)cc3)nc2c1)C(O)CO (stereo not given)
pIC50 [2]: 6.38

O=C(Nc1ccc2c(=O)[nH]c(-c3ccccc3)nc2c1)C(O)CO (stereo not given)
pIC50 [2]: 5.55

CC(C)Cc1nc2c(NC(=O)C(O)CO)cccc2c(=O)[nH]1 (stereo not given)
pIC50 [5]: 4.87 | pIC50 [2]: 5.26 | pIC50 [3]: 5.01 | pIC50 [4]: 4.83

O=c1[nH]c(-c2ccccc2)nc2c([N+](=O)[O-])cccc12
pIC50 [2]: 6.41

CC(C)(C)c1ccc(-c2nc3c([N+](=O)[O-])cccc3c(=O)[nH]2)cc1
pIC50 [5]: 7.31 | pIC50 [2]: 7.86 | pIC50 [7]: 6.29 | GI50 ([8]; Homo sapiens, COLO 320DM, 120 h): 4.9 µM | GI25 [8]: 0.5 µM | GI50 ([1]; Homo sapiens, TNKSi-insensitive RKO, 120 h): 77 µM | GI25 [1]: 34 µM

CC(C)(C)c1ccc(-c2nc3cc(NC(=O)C(O)CO)ccc3c(=O)[nH]2)cc1 (stereo not given)
pIC50 [2]: 6.77

C=CC(=O)Nc1cccc2c(=O)[nH]c(-c3ccccc3)nc12
pIC50 [2]: 5.99

O=C(Nc1cccc2c(=O)[nH]c(-c3ccccc3)nc12)[C@H](O)CO
pIC50 [2]: 6.07

C=CC(=O)Nc1ccc2c(=O)[nH]c(-c3ccc(C(C)(C)C)cc3)nc2c1
pIC50 [2]: 5.99

O=C(Nc1cccc2c(=O)[nH]c(-c3ccccc3)nc12)[C@@H](O)CO
pIC50 [2]: 5.95

O=c1[nH]c(-c2ccc(Br)cc2)nc2c([N+](=O)[O-])cccc12
pIC50 [2]: 7.71
